We go through eleven compounds from patent publication US20240018119A1, “CARBOXAMIDE DERIVATIVE AND PHARMACEUTICAL COMPOSITION COMPRISING SAME AS ACTIVE INGREDIENT FOR PREVENTING OR TREATING MENTAL ILLNESS” (DAEGU-GYEONGBUK MEDICAL INNOVATION FOUNDATION, priority 2020, published 2024).

Series [1] has as its system male ICR mice. Put plainly: Hyperactivity inhibitory effect, open field test (EthoVision) in MK801-treated mice. It counts as in vivo. The conditions noted are these: for movement duration: vehicle about 880 s; for distance moved: vehicle about 7000 cm. How it is done: In order to evaluate the hyperactivity inhibitory effect of the compounds of Example 35 and Example 66 according to the present invention or Comparative Example 1, an experiment was performed as follows, and the results are shown in FIG. 1. An open field test is an experimental method utilized for searching for excess and decline in motor function, calmness, excitement, avoidance degree and toxicity.
The observation of the hyperactivity and behavior analysis of animals were conducted using an EthoVisiorn System (Noldus IT b.v., Netherlands) that is a type of an open field test. The animals used for the experiment were male ICR mice of 4 weeks old. To induce hyperactivity, animal models intraperitoneally administered with 0.15 mg/kg of MK801 (drug name: dizocilpine) were used, and the compounds of Example 35, example 66 or Comparative Example 1 was intraperitoneally administered by 5 mg/kg, 30 minutes ago the administration of MK801. Male ICP mice administered with 10% DMSO and 10% Tween-80 as the solvents dissolving a drug were considered a vehicle, and male ICR mice administered with MK801 […] with the Example Compound or Comparative Compound were considered a positive control. After that, in the center of a test box (40×40×30 cm) manufactured using black acryl, the mice under test were put and allowed to fit for 15 minutes, and behavior patterns were observed, recorded and analyzed for 15 minutes. Comparative analysis was conducted by measuring distance moved and movement duration.

The test system of series [2] is male ICR mice. The series can be described thus: Evaluation on causing sleep disorder, pentobarbital sodium-induced sleep in mice. It counts as in vivo. The conditions noted are these: then pentobarbital sodium 42 mg/kg i.p.; for sleep onset time: vehicle about 225 seconds; for sleep duration: vehicle about 2100 seconds. How it is done:
In order to evaluate the causing of sleep disorder or not as the side effect of the compound of Example 35, Example 66 according to the present invention or Comparative Example 1, an experiment was performed as follows, and the results are shown in FIG. 2. Pentobarbital sodium is a drug inducing sleep, and by observing the behavior of sleep-induced animals using the drug, the causing of sleep disorder or not can be evaluated. In addition, caffeine is well-known as a drug causing sleep disorder, and diazepam is well-known as a sleeping pill having sleep retention effect.
As experimental animals, male ICR mice of 3 weeks old were prepared and, 8 mice per group were prepared. A vehicle taking only water, groups intraperitoneally administered once a day for 5 days with 10 mg/kg of caffeine, 2 mg/kg of diazepam, 10 mg/kg of Comparative Example 1, and 10 mg/kg of Example 35 and 10 mg/kg of Example 66, were prepared. […], 42 mg/kg of pentobarbital sodium was intraperitoneally administered to the mice of each group to Induce sleep.
After treatment with pentobarbital sodium, if a mouse was turned upside down showing Its belly, it was considered sleep, and if a mouse changed posture while showing its back, it was considered to wake up completely. Sleep onset time and sleep duration were confirmed.

Series [3] addresses T1, serotonin transporter (Homo sapiens, UniProt P31645).
T1 construct: expressed in transfected cells; host or cells: HEK-293
The series can be described thus: Serotonin reuptake inhibition in transporter-transfected HEK-293 cells ([3H]-5-HT). It counts as cell-based. The conditions noted are these: for IC50: concentration at which Ratio % is 50%, 6 concentrations 1 nM to 1 μM, read-out: Triple reuptake inhibition (IC50, μM) SERT; for Triple reuptake inhibition (Ratio %) SERT: compound 1 μM, [3H]-5-HT, relative to control without compound (100%), lower = more inhibition.

Series [4] deals with T2, norepinephrine transporter (Homo sapiens, UniProt P23975).
T2 construct: expressed in transfected cells; host or cells: HEK-293
Put plainly: Norepinephrine reuptake inhibition in transporter-transfected HEK-293 cells ([3H]-NE). The conditions noted are these: for IC50: concentration at which Ratio % is 50%, 6 concentrations 1 nM to 1 μM, read-out: Triple reuptake inhibition (IC50, μM) NET; for Triple reuptake inhibition (Ratio %) NET: compound 1 μM, [3H]-NE, relative to control without compound (100%), lower = more inhibition. In kind it is cell-based.

The target in series [5] is T3, dopamine transporter (Homo sapiens, UniProt Q01959).
T3 construct: expressed in transfected cells; host or cells: HEK-293
The series can be described thus: Dopamine reuptake inhibition in transporter-transfected HEK-293 cells ([3H]-DA). In kind it is cell-based. The conditions noted are these: for IC50: concentration at which Ratio % is 50%, 6 concentrations 1 nM to 1 μM, read-out: Triple reuptake inhibition (IC50, μM) DAT; for Triple reuptake inhibition (Ratio %) DAT: compound 1 μM, 20-30 nM [3H]-DA, relative to control without compound (100%), lower = more inhibition. The method, boiled down:
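HEK-293 cells transfected with human DAT cDNA; compound preincubated 15 min at 37 °C in uptake buffer, then buffer containing 20-30 nM [3H]-DA added for 5 min at 37 °C. After ice-cold washes and SDS lysis, radioactivity expressed as % of untreated control; IC50 from six concentrations (1 nM–1 μM).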

Setting [6] is: positive control treated with only MK801 0.15 mg/kg i.p.
The mark [7] stands for this setting: 2 mg/kg intraperitoneally once a day for 5 days.
The mark [8] stands for this setting: 5 mg/kg intraperitoneally 30 minutes before MK801 0.15 mg/kg i.p.
The mark [9] stands for this setting: 5 mg/kg intraperitoneally 30 minutes before MK801 0.15 mg/kg i.p., observed 15 minutes, MK801 only about 14000 cm.
Where [10] appears, read: 5 mg/kg intraperitoneally 30 minutes before MK801 0.15 mg/kg i.p., MK801 only about 1070 s.
Setting [11] is: 10 mg/kg intraperitoneally once a day for 5 days.

T1 sequence (P31645 whole entry): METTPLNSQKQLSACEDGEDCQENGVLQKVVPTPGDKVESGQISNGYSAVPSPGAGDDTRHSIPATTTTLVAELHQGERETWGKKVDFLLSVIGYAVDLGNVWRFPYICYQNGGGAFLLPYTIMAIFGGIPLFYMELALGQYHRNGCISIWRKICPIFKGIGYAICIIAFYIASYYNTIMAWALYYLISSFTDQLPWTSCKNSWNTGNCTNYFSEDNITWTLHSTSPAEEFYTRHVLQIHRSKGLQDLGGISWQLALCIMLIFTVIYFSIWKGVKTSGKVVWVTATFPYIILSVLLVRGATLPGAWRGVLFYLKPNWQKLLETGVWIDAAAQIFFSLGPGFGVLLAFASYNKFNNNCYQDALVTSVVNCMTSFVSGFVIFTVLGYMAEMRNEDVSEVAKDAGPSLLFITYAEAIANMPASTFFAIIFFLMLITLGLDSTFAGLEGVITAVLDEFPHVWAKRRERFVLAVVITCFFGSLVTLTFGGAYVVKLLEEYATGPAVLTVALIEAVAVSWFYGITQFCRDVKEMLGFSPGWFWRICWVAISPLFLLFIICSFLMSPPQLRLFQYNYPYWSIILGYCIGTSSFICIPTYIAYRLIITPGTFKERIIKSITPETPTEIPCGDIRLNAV
T3 sequence (Q01959 whole entry): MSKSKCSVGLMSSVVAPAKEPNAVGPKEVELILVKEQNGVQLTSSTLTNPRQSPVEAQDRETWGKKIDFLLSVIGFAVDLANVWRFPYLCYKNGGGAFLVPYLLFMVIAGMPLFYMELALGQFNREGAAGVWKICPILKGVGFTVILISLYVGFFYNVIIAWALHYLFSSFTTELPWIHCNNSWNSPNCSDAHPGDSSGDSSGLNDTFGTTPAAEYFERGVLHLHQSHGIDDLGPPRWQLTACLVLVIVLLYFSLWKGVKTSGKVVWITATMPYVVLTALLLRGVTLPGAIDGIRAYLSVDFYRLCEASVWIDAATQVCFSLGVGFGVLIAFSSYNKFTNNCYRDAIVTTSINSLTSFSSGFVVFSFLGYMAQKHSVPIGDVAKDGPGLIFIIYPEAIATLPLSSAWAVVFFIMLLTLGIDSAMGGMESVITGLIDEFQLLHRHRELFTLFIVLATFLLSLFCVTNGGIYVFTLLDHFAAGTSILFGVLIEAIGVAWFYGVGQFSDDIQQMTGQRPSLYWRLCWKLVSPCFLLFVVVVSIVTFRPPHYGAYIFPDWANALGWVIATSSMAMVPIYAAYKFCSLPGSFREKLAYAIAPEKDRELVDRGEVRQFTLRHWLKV
T2 sequence (P23975 whole entry, species assumed): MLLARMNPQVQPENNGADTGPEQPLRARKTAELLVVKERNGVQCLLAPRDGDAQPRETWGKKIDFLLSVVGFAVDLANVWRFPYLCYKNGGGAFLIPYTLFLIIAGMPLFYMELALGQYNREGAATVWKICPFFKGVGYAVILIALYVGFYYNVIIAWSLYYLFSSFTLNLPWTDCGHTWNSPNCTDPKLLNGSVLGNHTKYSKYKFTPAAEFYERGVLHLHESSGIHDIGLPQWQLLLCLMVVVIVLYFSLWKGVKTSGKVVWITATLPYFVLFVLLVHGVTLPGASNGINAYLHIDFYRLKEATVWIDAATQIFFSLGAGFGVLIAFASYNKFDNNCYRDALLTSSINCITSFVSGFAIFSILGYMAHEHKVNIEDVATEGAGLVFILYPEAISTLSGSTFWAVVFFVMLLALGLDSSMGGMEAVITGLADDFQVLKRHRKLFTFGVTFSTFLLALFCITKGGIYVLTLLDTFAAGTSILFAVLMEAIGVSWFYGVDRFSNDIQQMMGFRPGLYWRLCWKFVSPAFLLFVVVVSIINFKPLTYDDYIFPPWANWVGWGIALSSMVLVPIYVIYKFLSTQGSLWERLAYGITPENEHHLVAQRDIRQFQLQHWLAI

Turning to `C[C@]12N[C@H](Cc3ccccc31)c1ccccc12` [MK801, reference compound], in series [1] (setting [6]), the movement duration result was “about 1070 seconds” and the distance moved result is “about 14000 cm”.
Consider `CN1C(=O)CN=C(c2ccccc2)c2cc(Cl)ccc21` [diazepam], for which, in series [2] (setting [7]), the sleep onset time result is given as “about 170 seconds” and the sleep duration result is “about 2900 seconds”.
What is called IC50 is the concentration that gives 50% inhibition. For `O=C(NCCN1CCC(Cc2ccccc2)CC1)c1cc2ccccc2[nH]1` [Comparative Example 1, N-(2-(4-benzylpiperidin-1-yl)ethyl)-1H-indol-2-carboxamide, reference compound], in series [3], the IC50 amounted to 5.35 µM. Also, the IC50 in series [4] turned out to be 0.524 µM. In addition, in series [5], the IC50 is 4.18 µM. Moreover, in series [1] (setting [8]), the “hyperactivity of the mice induced with MK801” value (“hyperactivity” below) is given as “not inhibited”. Also, the distance moved entry in series [1] (setting [9]) is “about 13400 cm”. Moreover, the movement duration result in series [1] (setting [10]) is recorded as “about 1100 seconds”. Further, in series [2] (setting [11]), the “sleep disorder as side effect” value was “induced sleep disorder”, the sleep onset time entry is recorded as “about 300 seconds” and the sleep duration result is “about 1100 seconds”.
Consider `O=C(NCCN1CCC(Cc2ccccc2)CC1)c1cc2cc(O)ccc2[nH]1` [Example 66, N-(2-(4-benzylpiperidin-1-yl)ethyl)-5-hydroxy-1H-Indol-2-carboxamide], for which, in series [3], the “Triple reuptake inhibition (Ratio %) SERT” value is recorded as 38.79% and the IC50 came out at 0.265 µM. Moreover, in series [4], the “Triple reuptake inhibition (Ratio %) NET” value was 21.59% and the IC50 is 0.167 µM. For the same compound, in series [5], the “Triple reuptake inhibition (Ratio %) DAT” value is recorded as 8.78% and the IC50 came out at 0.036 µM. The “hyperactivity” value in series [1] (setting [8]) is on record as “significantly inhibited”. Besides, in series [1] (setting [9]), the distance moved result is “about 8600 cm”. In series [1] (setting [10]), the movement duration result was “about 880 seconds”.
Take `O=C(NCCN1CCN(Cc2ccccc2)CC1)c1ccc2cc(Br)ccc2c1` [Example 5, N-(2-(4-benzylpiperazin-1-yl)ethyl)-6-bromo-2-naphthamide]: the “Triple reuptake inhibition (Ratio %) SERT” value in series [3] is given as 76.90%. For the same compound, the “Triple reuptake inhibition (Ratio %) NET” value in series [4] is on record as 94.24%. In addition, the “Triple reuptake inhibition (Ratio %) DAT” value in series [5] amounted to 96.26%.
Turning to `O=C(NCCN1CCN(Cc2ccc(Cl)c(Cl)c2)CC1)c1ccc(Cl)c(Cl)c1` [Example 11, 3,4-dichloro-N-(2-(4-(3,4-dichlorobenzyl)piperazin-1-yl)ethyl)benzamide], in series [3], the “Triple reuptake inhibition (Ratio %) SERT” value amounted to 63.40%. Moreover, in series [4], the “Triple reuptake inhibition (Ratio %) NET” value came out at 82.25%. In series [5], the “Triple reuptake inhibition (Ratio %) DAT” value was 75.29%.
Take `Cn1c(C(=O)NCCN2CCC(Cc3ccccc3)CC2)cc2ccccc21` [Example 74, N-(2-(4-benzylpiperidin-1-yl)ethyl)-1-methyl-1H-indol-2-carboxamide]: in series [3], the “Triple reuptake inhibition (Ratio %) SERT” value is recorded as 67.26% and the IC50 worked out at 3.41 µM. In addition, in series [4], the “Triple reuptake inhibition (Ratio %) NET” value is recorded as 28.47% and the IC50 turned out to be 0.337 µM. Besides, in series [5], the “Triple reuptake inhibition (Ratio %) DAT” value came out at 39.87% and the IC50 is 0.509 µM.
As for `O=C(NCCNCc1ccc2ccccc2c1)c1cc2ccccc2[nH]1` [Example 54, N-(2-((naphthalen-2-ylmethyl)amino)ethyl)-1H-indol-2-carboxamide], the “Triple reuptake inhibition (Ratio %) SERT” value in series [3] is given as 84.69%. In addition, in series [4], the “Triple reuptake inhibition (Ratio %) NET” value was 92.95%. For the same compound, in series [5], the “Triple reuptake inhibition (Ratio %) DAT” value worked out at 79.32%.
In the case of `O=C(NC1(CN2CCC(Cc3ccccc3)CC2)CC1)c1cc2ccccc2[nH]1` [Example 53, N-(1-((4-benzylpiperidin-1-yl)methyl)cyclopropyl)-1H-indol-2-carboxamide], the “Triple reuptake inhibition (Ratio %) SERT” value in series [3] is 108.82%. Moreover, the “Triple reuptake inhibition (Ratio %) NET” value in series [4] turned out to be 69.01%. In addition, the “Triple reuptake inhibition (Ratio %) DAT” value in series [5] is 86.48%.
Take `O=C(NCCN1CCC(Cc2ccccc2)CC1)c1cc2cc(F)ccc2[nH]1` [Example 49]: in series [3], the “Triple reuptake inhibition (Ratio %) SERT” value was 62.50% and the 50% inhibitory concentration (IC50) turned out to be 1.47 µM. Moreover, in series [4], the “Triple reuptake inhibition (Ratio %) NET” value is 26.73% and the IC50 was 0.561 µM. In series [5], the “Triple reuptake inhibition (Ratio %) DAT” value was determined as 24.67% and the IC50 was determined as 0.138 µM.
As for `COc1cc2cc(C(=O)NCCN3CCC(Cc4ccccc4)CC3)[nH]c2cc1OC` [Example 35, N-(2-(4-benzylpiperidin-1-yl)ethyl)-5,6-dimethoxy-1H-indol-2-carboxamide], in series [3], the “Triple reuptake inhibition (Ratio %) SERT” value was determined as 36.24% and the 50% inhibitory concentration (IC50) turned out to be 0.415 µM. In series [4], the “Triple reuptake inhibition (Ratio %) NET” value came out at 16.10% and the IC50 came out at 0.386 µM. Besides, in series [5], the “Triple reuptake inhibition (Ratio %) DAT” value was 7.77% and the IC50 was 0.248 µM. Also, the “hyperactivity” value in series [1] (setting [8]) is listed as “significantly inhibited”. For the same compound, the distance moved entry in series [1] (setting [9]) is “about 10000 cm”. For the same compound, the movement duration result in series [1] (setting [10]) is given as “about 950 seconds”.
